Assay results from patent US20260001928A1 (CORTERIA PHARMACEUTICALS, priority 2022, published 2026).
One block for each compound: values may come before it. *1 amine or outer side, *2 acyl side, *3 side chain or, on linkers, in order; H or OH if unused. Where a SMILES comes first, the peptide text is derived from it. Side-chain parts run from the residue outwards. [ ]: non-standard residue; d: D form. The star is where a group is joined. C20 diacid = O=C(O)CCCCCCCCCCCCCCCCCCC(=O)*; C18 diacid = O=C(O)CCCCCCCCCCCCCCCCC(=O)*; C16 diacid = O=C(O)CCCCCCCCCCCCCCC(=O)*; γGlu = O=C(O)[C@H](CCC(=O)[*:2])N[*:1]; NMeI = CC[C@H](C)[C@H](NC)C(=O)O; Pentanoyl = CCCCC(=O)*; AEEA = NCCOCCOCC(=O)O; Aib = CC(C)(N)C(=O)O

Experiments:
[1] = In vitro plasma stability, minipig plasma; type: in vitro ADME; parameters: remaining at 2 h: dose or concentration left out as unconfirmed; conditions: pig, plasma; Minipig PLM, 37° C.
[2] = target: T1, CFR1R receptor (Homo sapiens, UniProt P34998); test: Activity at anti-target CFR1R receptor, cAMP assay in CRF1R-overexpression CHO-K1 cells; type: cell-based; conditions: 100% = Sauvagine at 100 nM; for EC50: cAMP
T1 construct: host or cells: CHO-K1 (clone 2)
T1 sequence (P34998 24-415): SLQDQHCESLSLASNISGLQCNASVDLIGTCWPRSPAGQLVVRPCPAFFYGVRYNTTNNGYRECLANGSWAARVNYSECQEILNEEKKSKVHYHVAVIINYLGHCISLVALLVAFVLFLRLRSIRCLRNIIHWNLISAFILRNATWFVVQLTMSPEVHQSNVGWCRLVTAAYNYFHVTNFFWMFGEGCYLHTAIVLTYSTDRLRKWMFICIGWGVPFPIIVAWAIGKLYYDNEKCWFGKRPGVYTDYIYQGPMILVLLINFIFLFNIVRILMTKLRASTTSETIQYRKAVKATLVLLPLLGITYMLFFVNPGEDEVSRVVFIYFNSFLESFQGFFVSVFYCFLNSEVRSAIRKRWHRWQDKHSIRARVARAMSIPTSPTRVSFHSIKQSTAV
Method in brief: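 The method mirrors that used with TeloHAEC cells. Here, thawed clone 2 cells seeded at 4000 cells/well are tested, and 100 nM Sauvagine sets the top of the activation scale.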

[3] = target: T2, human CRF2a receptor (Homo sapiens, UniProt Q13324); test: Activity at human CRF2a receptor, cAMP functional assay in TeloHEAC cells; type: cell-based; conditions: TeloHEAC cells stably expressing human CRF2a receptor, relative to urocortin 2 (100 nM = 100%)
T2 construct: expressed in transfected cells; host or cells: TeloHEAC cells
T2 sequence (Q13324 1-411): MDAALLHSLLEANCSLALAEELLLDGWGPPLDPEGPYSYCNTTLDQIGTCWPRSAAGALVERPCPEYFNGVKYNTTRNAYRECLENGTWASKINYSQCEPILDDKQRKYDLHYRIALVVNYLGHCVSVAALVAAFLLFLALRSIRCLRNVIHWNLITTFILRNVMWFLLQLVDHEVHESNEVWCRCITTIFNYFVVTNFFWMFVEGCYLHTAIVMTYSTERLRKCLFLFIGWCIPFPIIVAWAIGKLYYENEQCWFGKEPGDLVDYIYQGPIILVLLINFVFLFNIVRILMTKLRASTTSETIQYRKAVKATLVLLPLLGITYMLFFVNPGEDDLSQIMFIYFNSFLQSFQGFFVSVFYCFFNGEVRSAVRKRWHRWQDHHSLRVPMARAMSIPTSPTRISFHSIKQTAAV
Method in brief: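 TeloHEAC cells stably expressing human CRF2a (10000 cells/well) were treated with 16-point 1:2 compound dilutions in HBSS/20 mM HEPES with IBMX for 30 min at 37° C. cAMP was read by HTRF (665/620 nm ratio). EC50 was the concentration giving 50% activation, with 100 nM urocortin 2 set as 100%.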

[4] = In vitro plasma stability, human plasma; type: in vitro ADME; parameters: dose or concentration left out as unconfirmed; conditions: Human PLM, 37° C.
Method: (§1) In vitro plasma metabolic stability was studied in male Sprague Dawley rats and human. Test compounds were incubated at 3 M for 2 hours at 37° C. At each time point (0, 0.25, 1 and 2 h), samples were prepared for analysis by means of a single step protein precipitation technique by adding 150 μL of ethanol, 0.1% formic acid to 50 μL aliquots of plasma. Samples were mixed by vortex for homogeneity and then subjected to centrifugation at 14000 rpm for 15 min. The supernatant (100 μL) was collected, diluted with 100 μL of water, 0.1% formic acid and analyzed by LC-HRMS (TripleTOF 6600+, AB Sciex). For each test compound, the area ratios at each time point were compared to the 0 h area ratio and converted to a percentage remaining.

[5] = Chemical stability in buffer (pH 7.4 / pH 4.5), % purity loss; type: physicochemical; conditions: 40° C. vs 5° C., 14 or 28 days; for Buffer stability pH 7.4 % purity loss: 100 mM phosphate buffer pH 7.4
Method in brief: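 LC-UV gave % loss after 14 or 28 days of storage at 5 °C or 40 °C. Samples were diluted supernatants from compound incubated 1 h at room temperature at 10 mg/mL target, in 100 mM acetate pH 4.5 or 100 mM phosphate pH 7.4.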

[6] = In vitro plasma stability, rat plasma; type: in vitro ADME; parameters: remaining at 2 h: dose or concentration left out as unconfirmed; conditions: male, Sprague Dawley, plasma; Rat PLM, 37° C.
Method: as §1

[7] = target: T3, rat CRF2 a (Rattus norvegicus, UniProt P47866); test: Activity at rat CRF2 a, cAMP assay in A7R5 rat aortic smooth muscle cells; type: cell-based; conditions: 0% HSA, 100% = Sauvagine at 100 nM
T3 construct: host or cells: A7R5 rat aortic smooth muscle cells
T3 sequence (P47866 27-431 isoform P47866-2 limits assumed): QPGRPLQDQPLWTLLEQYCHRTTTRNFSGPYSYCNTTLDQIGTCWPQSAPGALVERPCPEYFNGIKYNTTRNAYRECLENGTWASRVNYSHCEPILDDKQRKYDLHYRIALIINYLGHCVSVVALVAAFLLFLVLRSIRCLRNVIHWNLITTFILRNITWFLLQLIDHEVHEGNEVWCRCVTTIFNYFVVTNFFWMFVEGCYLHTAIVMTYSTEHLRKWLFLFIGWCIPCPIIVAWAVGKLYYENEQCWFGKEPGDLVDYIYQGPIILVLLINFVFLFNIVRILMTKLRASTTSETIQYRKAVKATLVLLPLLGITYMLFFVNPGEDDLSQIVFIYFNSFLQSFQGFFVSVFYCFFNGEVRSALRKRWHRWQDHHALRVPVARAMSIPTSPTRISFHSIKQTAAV
Method: The A7R5 rat aortic smooth muscle cell line used in this study was purchased from ATCC.
Cells were grown in a 10 cm dish at 37° C./5% CO2 in medium (DMEM/10% FBS) to near confluence. At that stage, cells were harvested, resuspended to 10 million/mL in culture medium and with 5% DMSO. 1 mL vial aliquots were slowly frozen to −80° C. in isopropanol and then transferred in liquid nitrogen for storage.
These vials were used to run the experiment following the procedure reported in the previous paragraph, except for the compound used in the control well to define the 100% activation (Sauvagine at 100 nM) and the cell density (final cell density: 5000 cells/well).

[8] = Pharmacokinetics in male Sprague Dawley rats after subcutaneous administration; type: in vivo; conditions: plasma, rat; for AUC(0-t) / half-life: IV
[9] = tested on: Sprague Dawley rats; test: Effect on systolic blood pressure, telemetry in Sprague Dawley rats; type: in vivo, rat; conditions: 0.1 mg/kg SC
Method in brief: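 Values are % change from a 1 h pre-dose baseline in systolic pressure, tracked by telemetry for up to 48 hours after a single 0.1 mg/kg subcutaneous dose. Rats (Sprague Dawley, n=2 per peptide) carried aortic catheters and recovered at least 10 days post-surgery; duration of action marks the last time point still showing an effect.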

[10] = In vitro subcutaneous tissue supernatant (SCts) stability and metabolite identification, rat; type: in vitro ADME; parameters: remaining at 2 h: dose or concentration left out as unconfirmed; conditions: male, Sprague Dawley; rat subcutaneous tissue supernatant (SCts), 37° C, 2 h
[11] = Pharmacokinetics in male Sprague Dawley rats after subcutaneous administration; type: in vivo; conditions: plasma, rat, SC
[12] = Human PLM; conditions: 37° C., up to 2 hours
[13] = Rat PLM; conditions: male Sprague Dawley rats, 37° C., up to 2 hours

- remaining at 2 h [1]: 104%
- Emax (% I) [2]: 10 % I
- EC50 [2]: > 250 nM
- EC50 [3]: 0.35 nM
- remaining at 2 h [4]: 101%
- Buffer stability pH 7.4 % purity loss [5]: 0/nd ^ %
- remaining at 2 h [6]: 98%
Compound: CCCCC(=O)N[C@H](C(=O)N[C@@H](CC(C)C)C(=O)N[C@@H](CO)C(=O)N[C@@H](CC(C)C)C(=O)N[C@@H](CC(=O)O)C(=O)N[C@@H](C(=O)N1CCC[C@H]1C(=O)N[C@H](C(=O)N[C@@H](CCCCN)C(=O)N[C@@H](CC(C)C)C(=O)N[C@@H](CCCCNC(=O)CC[C@H](NC(=O)CCCCCCCCCCCCCCC(=O)O)C(=O)O)C(=O)N[C@@H](CCCCN)C(=O)N[C@H](C(=O)N[C@@H](CC(C)C)C(=O)N[C@@H](CC(C)C)C(=O)N[C@@H](CCC(=O)O)C(=O)N[C@@H](CCC(N)=O)C(=O)N[C@@H](CCC(=O)O)C(=O)N[C@@H](CCCCN)C(=O)N[C@@H](CCC(N)=O)C(=O)N[C@@H](CCCCN)C(=O)N[C@@H](CCCCN)C(=O)N[C@@H](CCC(N)=O)C(=O)N[C@@H](CCCNC(=N)N)C(=O)N[C@@H](CCC(=O)O)C(=O)N[C@@H](CCC(N)=O)C(=O)N[C@@H](C)C(=O)N[C@@H](CCC(=O)O)C(=O)N[C@H](C(=O)N[C@@H](CC(N)=O)C(=O)NC(C)(C)C(=O)N[C@@H](CCC(N)=O)C(=O)N[C@H](C(=O)N[C@@H](CC(C)C)C(=O)N[C@@H](C)C(=O)N[C@@H](CCC(N)=O)C(=O)N[C@H](C(N)=O)C(C)C)[C@@H](C)CC)[C@@H](C)O)[C@@H](C)CC)[C@@H](C)CC)C(C)C)C(C)C [compound 80] (Pentanoyl-VLSLD[dV]PIKLK([γGlu-C16 diacid])KILLEQEKQKKQREQAETN[Aib]QILAQV-NH2)

- EC50 [7]: 0.05 nM
- AUC(0-t) ([8]; 0.05 mg/kg): 4100 ng·h/mL
- half-life ([8]; 0.05 mg/kg): 5.8 h
- Tmax ([8]; SC, 0.1 mg/kg): 8 h
- remaining at 2 h [10]: 76%
- Buffer stability pH 7.4 % purity loss [5]: 0.0/Not Tested %
- AUC(0-t) ([11]; 0.1 mg/kg): 4200 ng·h/mL
- Cmax ([11]; 0.1 mg/kg): 295 ng/mL
Compound: CC[C@H](C)[C@H](NC)C(=O)N[C@H](C(=O)N[C@@H](CC(C)C)C(=O)N[C@@H](CO)C(=O)N[C@@H](CC(C)C)C(=O)N[C@@H](CC(=O)O)C(=O)N[C@@H](C(=O)N1CCC[C@H]1C(=O)N[C@H](C(=O)N[C@@H](CCCCN)C(=O)N[C@@H](CC(C)C)C(=O)N[C@@H](CCCCNC(=O)CC[C@H](NC(=O)CCCCCCCCCCCCCCCCC(=O)O)C(=O)O)C(=O)N[C@@H](CCCCN)C(=O)N[C@H](C(=O)N[C@@H](CC(C)C)C(=O)N[C@@H](CC(C)C)C(=O)N[C@@H](CCC(=O)O)C(=O)N[C@@H](CCC(N)=O)C(=O)N[C@@H](CCC(=O)O)C(=O)N[C@@H](CCCCN)C(=O)N[C@@H](CCC(N)=O)C(=O)N[C@@H](CCCCN)C(=O)NC(C)(C)C(=O)N[C@@H](CCC(N)=O)C(=O)N[C@@H](CCCNC(=N)N)C(=O)N[C@@H](CCC(=O)O)C(=O)N[C@@H](CCC(N)=O)C(=O)N[C@@H](C)C(=O)N[C@@H](CCC(=O)O)C(=O)N[C@H](C(=O)N[C@@H](CC(N)=O)C(=O)NC(C)(C)C(=O)N[C@@H](CCC(N)=O)C(=O)N[C@H](C(=O)N[C@@H](CC(C)C)C(=O)N[C@@H](C)C(=O)N[C@@H](CCC(N)=O)C(=O)N[C@H](C(N)=O)C(C)C)[C@@H](C)CC)[C@@H](C)O)[C@@H](C)CC)[C@@H](C)CC)C(C)C)C(C)C [compound 145] (H-[NMeI]VLSLD[dV]PIKLK([γGlu-C18 diacid])KILLEQEKQK[Aib]QREQAETN[Aib]QILAQV-NH2)
- Systolic blood pressure (Mean) % change from baseline, 8 h ([9]; 8 h, n=2): −23%
- Systolic blood pressure (Mean) % change from baseline, 12 h ([9]; 12 h, n=2): −21%
- Systolic blood pressure (Mean) % change from baseline, 24 h ([9]; 24 h, n=2): −14%
- Duration of action ([9]; last time point with an effect on BP still observed): >24 h

- EC50 [7]: 0.05 nM
- Emax (% I) [2]: 15 % I
- EC50 [2]: > 250 nM
- EC50 [3]: 0.09 nM
- AUC(0-t) ([8]; 0.025 mg/kg): 2700 ng·h/mL
- half-life ([8]; 0.025 mg/kg): 7 h
- remaining at 2 h [10]: 68%
- Buffer stability pH 4.5 % purity loss ([5]; 100 mM acetate buffer pH 4.5): 0.0%
- Buffer stability pH 7.4 % purity loss [5]: −0.1%
- AUC(0-t) ([11]; 0.05 mg/kg): 2730 ng·h/mL
- Cmax ([11]; 0.05 mg/kg): 95 ng/mL
- Tmax ([11]; 0.05 mg/kg): 6 h
- half-life ([11]; 0.05 mg/kg): 7.5 h
Compound: CC[C@H](C)[C@H](NC)C(=O)N[C@H](C(=O)N[C@@H](CC(C)C)C(=O)N[C@@H](CO)C(=O)N[C@@H](CC(C)C)C(=O)N[C@@H](CC(=O)O)C(=O)N[C@@H](C(=O)N1CCC[C@H]1C(=O)N[C@H](C(=O)N[C@@H](CCCCN)C(=O)N[C@@H](CC(C)C)C(=O)N[C@@H](CCCCNC(=O)COCCOCCNC(=O)CC[C@H](NC(=O)CCCCCCCCCCCCCCCCCCC(=O)O)C(=O)O)C(=O)N[C@@H](CCCCN)C(=O)N[C@H](C(=O)N[C@@H](CC(C)C)C(=O)N[C@@H](CC(C)C)C(=O)N[C@@H](CCC(=O)O)C(=O)N[C@@H](CCC(N)=O)C(=O)N[C@@H](CCC(=O)O)C(=O)N[C@@H](CCCCN)C(=O)N[C@@H](CCC(N)=O)C(=O)N[C@@H](CCCCN)C(=O)NC(C)(C)C(=O)N[C@@H](CCC(N)=O)C(=O)N[C@@H](CCCNC(=N)N)C(=O)N[C@@H](CCC(=O)O)C(=O)N[C@@H](CCC(N)=O)C(=O)N[C@@H](C)C(=O)N[C@@H](CCC(=O)O)C(=O)N[C@H](C(=O)N[C@@H](CC(N)=O)C(=O)NC(C)(C)C(=O)N[C@@H](CCC(N)=O)C(=O)N[C@H](C(=O)N[C@@H](CC(C)C)C(=O)N[C@@H](C)C(=O)N[C@@H](CCC(N)=O)C(=O)N[C@H](C(N)=O)C(C)C)[C@@H](C)CC)[C@@H](C)O)[C@@H](C)CC)[C@@H](C)CC)C(C)C)C(C)C [compound 234] (H-[NMeI]VLSLD[dV]PIKLK([AEEA-γGlu-C20 diacid])KILLEQEKQK[Aib]QREQAETN[Aib]QILAQV-NH2)

- not cleaved [12]: 104% remaining at 2 hours
- not cleaved [13]: 96% remaining at 2 hours
Compound: Ac-IVLSLDvPIKLK*KILLEQEKQKKQREQAETN4-PipQILAQV-NH2
